What was measured:
[1] = system: phospho-cdc2 (Tyr15) in HT-29 cells; experiment: Effect on Cdc2 phosphorylation at Tyr15, Cell-Based ELISA Base Kit (Method 3); conditions: Homo sapiens, HT-29, 8 h, eight hours incubation, normalized to total cdc2, read-out: HT29 pCDC2 method 3
Method in brief: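 HT-29 cells were treated with compounds for 8 h at 37 °C, then fixed in 4% formaldehyde. Phospho-cdc2 (Tyr15) and total cdc2 were read by dual-fluorogenic cell-based ELISA at 600/450 nm. Phospho signal was normalized to total cdc2 and expressed as % of DMSO control, and EC50 came from non-linear regression.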

[2] = system: phospho-cdc2 (Tyr15) in HT-29 cells; experiment: Effect on phosphorylation of cdc2 at Tyr15, PathScan ELISA (Method 2); type: cell-based; conditions: Homo sapiens, 8 h, eight hours incubation, read-out: HT29 pCDC2 method 2
Method in brief: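 HT-29 cells exposed to compound for eight hours at 37° C., then lysed. Phospho-cdc2 (Tyr15) measured by sandwich ELISA with HRP/TMB read-out at 450 nm. Percent of DMSO control plotted vs concentration; IC50 from non-linear regression.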

Compound	EC50 [1]	IC50 [2]
CN1CN(c2c(Cl)cccc2Cl)C(=O)c2cnc(Nc3ccc(N4CC5CCC(C4)N5C)c(CO)c3)nc21 [Example 86, 3-(2,6-dichlorophenyl)-7-((3-(hydroxymethyl)-4-(8-methyl-3,8-diazabicyclo[3.2.1]octan-3-yl)phenyl)amino)-1-methyl-2,3-dihydropyrimido[4,5-d]pyrimidin-4(1H)-one]	100 to 1000 nM	≤ 100 nM
CN1CN(c2c(Cl)cccc2Cl)C(=O)c2cnc(Nc3ccc(N4CCNCC4)cc3)nc21 [Example 1, 3-(2,6-Dichlorophenyl)-1-methyl-7-((4-(piperazin-1-yl)phenyl)amino)-2,3-dihydropyrimido[4,5-d]pyrimidin-4(1H)-one]	100 to 1000 nM	100 to 1000 nM
CNCCOc1ccc(Nc2ncc3c(n2)N(C)CN(c2c(Cl)cccc2Cl)C3=O)cc1 [Example 2, 3-(2,6-Dichlorophenyl)-1-methyl-7-((4-(2-(methylamino)ethoxy)phenyl)amino)-2,3-dihydropyrimido[4,5-d]pyrimidin-4(1H)-one]	100 to 1000 nM	100 to 1000 nM

Source: US9850247B2 (Almac Discovery Limited, priority 2013, dated 2017)
